Measured values published in PubChem BioAssay (NCI).
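Test compounds were applied to cells in 96-well plates for 48 hours at 5 doses. GI50 is the concentration that inhibits growth by half. At the TGI there is no net growth.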

How the values were obtained:
Experiment in all cases: DTP human tumour cell line panel, 48 h
MOLT-4 leukemia = tested on: MOLT-4 leukemia
K-562 leukemia = tested on: K-562 leukemia
HT29 colon = tested on: HT29 colon
UO-31 renal = tested on: UO-31 renal
SN12C renal = tested on: SN12C renal
UACC-257 melanoma = tested on: UACC-257 melanoma
HOP-62 NSCLC = tested on: HOP-62 NSCLC
OVCAR-5 ovarian = tested on: OVCAR-5 ovarian
MALME-3M melanoma = tested on: MALME-3M melanoma
DU-145 prostate = tested on: DU-145 prostate

SMILES	TGI (MOLT-4 leukemia) [µM]	TGI (K-562 leukemia) [µM]	TGI (HT29 colon) [µM]	TGI (UO-31 renal) [µM]	TGI (SN12C renal) [µM]	TGI (UACC-257 melanoma) [µM]	TGI (HOP-62 NSCLC) [µM]	TGI (OVCAR-5 ovarian) [µM]	GI50 (MOLT-4 leukemia) [µM]	GI50 (K-562 leukemia) [µM]	GI50 (HT29 colon) [µM]	GI50 (UO-31 renal) [µM]	GI50 (MALME-3M melanoma) [µM]	TGI (MALME-3M melanoma) [µM]	GI50 (SN12C renal) [µM]	GI50 (UACC-257 melanoma) [µM]	GI50 (HOP-62 NSCLC) [µM]	GI50 (OVCAR-5 ovarian) [µM]	GI50 (DU-145 prostate) [µM]	TGI (DU-145 prostate) [µM]
C/C(=N\NS(=O)(=O)c1ccc(C)cc1)c1ccc[n+]([O-])n1	> 100	> 100	> 100	> 100	> 100	> 100	> 100	> 100	–	–	–	–	–	–	–	–	–	–	–	–
CC(C)OP(=O)(OC(C)C)C(N(C)C)P(=O)(OC(C)C)OC(C)C.[Cl][Sn]([Cl])([Cl])[c]1ccccc1	7.39	5.62	12.8	> 100	> 100	8.95	7.34	49.1	1.97	2.26	0.923	4.12	2.82	8.2	4.13	2.79	2.08	4.37	–	–
O=C1C=C(Nc2cccc(Br)c2)c2ccccc2C1=O	42.7	18.3	> 100	33.6	23.8	> 100	26.1	34.3	18.4	1.52	69.1	1.81	–	–	5.79	5.99	2.29	14.5	0.569	14
CC(C)OP(=O)(CP(=O)(OC(C)C)OC(C)C)OC(C)C.[CH3][Sn]([Br])([Br])[Br]	> 100	> 100	> 100	> 100	> 100	> 100	> 100	> 100	> 100	> 100	> 100	> 100	> 100	> 100	> 100	> 100	> 100	> 100	–	–
Cc1c(C(C)C)cc(OCCO)cc1C(C)C	> 100	> 100	81.1	> 100	93.1	> 100	> 100	> 100	–	–	–	–	–	–	–	–	–	–	–	> 100
c1ccc(SCCCC(Sc2ccccc2)Sc2ccccc2)cc1	> 100	> 100	–	> 100	> 100	> 100	> 100	–	–	–	–	–	–	–	–	–	–	–	–	–
COc1ccc(C[C@H]2C[C@@H](O)[C@@H](C)C/C=C/Cc3cccc(O)c3C(=O)O2)cn1	> 100	28.6	> 100	66.1	43.9	71.4	40.2	37.2	35.4	12.2	31	19.9	–	–	19.4	21.5	18.6	19	27.7	> 100
COc1cc2c3c(c1OC)-c1ccccc1C(C(OC(C)=O)c1ccccc1)C3N(C)CC2 (stereo not given)	> 100	–	> 100	> 100	> 100	> 100	–	> 100	–	–	–	–	–	> 100	–	–	–	–	–	–
Cc1ccc([P+](Cc2ccc([N+](=O)[O-])cc2)(c2ccc(C)cc2)c2ccc(C)cc2)cc1	29.3	12.3	12.8	31.5	17.5	5.3	23.8	23.3	5.97	1.28	2.51	13.3	–	–	4.27	1.69	10.4	6.68	5.44	20.8
Cc1nnc2n1N=C(CC(=O)c1ccc(O)cc1O)CN2N	–	> 100	> 100	> 100	> 100	> 100	> 100	> 100	–	–	–	–	–	> 100	–	–	–	–	–	–
CC1=CC2=C(C)C3(CC3)[C@@](C)(O)C(=O)C2=C1	> 1	> 1	0.803	0.337	0.557	0.578	0.356	0.454	–	–	–	–	–	0.424	–	–	–	–	–	–
CC(=O)NC1C(OCc2ccccc2)OC(COC(=O)CCCCCCCCCCNC(=O)c2cccc3c(=O)c4ccccc4[nH]c23)C(O)C1OC(C)C(=O)NC(C)C(=O)NC(CCC(N)=O)C(N)=O (stereo not given)	> 100	> 100	> 100	> 100	> 100	> 100	> 100	> 100	–	–	–	–	–	–	–	–	–	–	–	–
Clc1ccc2c(Cl)ncnc2c1	> 100	> 100	> 100	> 100	> 100	> 100	> 100	> 100	–	–	–	–	–	> 100	–	–	–	–	–	–
Brc1ccc2c(c1)C1(c3cc(Br)ccc3-2)c2cc(Br)ccc2-c2ccc(Br)cc21	> 100	> 100	> 100	> 100	> 100	> 100	> 100	> 100	–	–	–	–	–	> 100	–	–	–	–	–	–
COc1ccc2cccc(C(=N)c3ccc(C)c4c3CCC4)c2c1	26.1	10.8	15	16.2	24.5	18.2	20	18.9	–	–	–	–	–	18.1	–	–	–	–	–	–
COc1ccc([Se]c2ccc(OC)cc2OC)c(OC)c1	> 100	> 100	29.7	65.8	> 100	> 100	–	> 100	–	–	–	–	–	> 100	–	–	–	–	–	–
CC1CCC(O)C(C(O)CC2CC(=O)N(C)C(=O)C2)C1 (stereo not given)	> 100	> 100	> 100	> 100	> 100	> 100	> 100	> 100	–	–	–	–	–	> 100	–	–	–	–	–	–
O=C1[C@H]2C(c3ccccc3)=NN(C(=O)c3ccccc3)[C@H]2C(=O)N1c1ccccc1	> 100	> 100	> 100	> 100	> 100	> 100	> 100	–	–	–	–	–	–	> 100	–	–	–	–	–	–
COc1cc2ccn3c4cc(OC)c(OC)cc4cc3c2cc1OC	> 100	> 100	> 100	> 100	> 100	> 100	> 100	> 100	–	–	–	–	–	> 100	–	–	–	–	–	–
O=C1c2ccccc2-c2cc3ccccc3c(=O)n21	–	> 100	> 100	> 100	> 100	> 100	–	> 100	–	–	–	–	–	–	–	–	–	–	–	> 100
CCC1OCCN1C(C)C (stereo not given)	> 100	> 100	–	> 100	> 100	> 100	–	> 100	–	–	–	–	–	> 100	–	–	–	–	–	–

SMILES	TGI (MOLT-4 leukemia) [µM]	TGI (K-562 leukemia) [µM]	TGI (HT29 colon) [µM]	TGI (UO-31 renal) [µM]	TGI (SN12C renal) [µM]	TGI (UACC-257 melanoma) [µM]	TGI (HOP-62 NSCLC) [µM]	TGI (OVCAR-5 ovarian) [µM]	GI50 (MOLT-4 leukemia) [µM]	GI50 (K-562 leukemia) [µM]	GI50 (HT29 colon) [µM]	GI50 (UO-31 renal) [µM]	GI50 (MALME-3M melanoma) [µM]	TGI (MALME-3M melanoma) [µM]	GI50 (SN12C renal) [µM]	GI50 (UACC-257 melanoma) [µM]	GI50 (HOP-62 NSCLC) [µM]	GI50 (OVCAR-5 ovarian) [µM]	GI50 (DU-145 prostate) [µM]	TGI (DU-145 prostate) [µM]
COC(=O)C12CC(C3CC31)C1CC12 (stereo not given)	> 100	> 100	> 100	> 100	> 100	> 100	> 100	> 100	–	–	–	–	–	> 100	–	–	–	–	–	–
Cc1ccc(NC(=O)CCC(=O)C2CC(=O)CC/C2=N\NC(=O)c2cc3ccccc3cc2O)cc1C (stereo not given)	99.6	> 100	> 100	59.3	> 100	61.7	> 100	56.8	–	–	–	–	–	90.2	–	–	–	–	–	–
O=c1c2ccccc2nc(-c2ccccc2)n1NCC1(O)OCC(O)C(O)C1O (stereo not given)	> 100	> 100	> 100	> 100	> 100	> 100	> 100	> 100	–	–	–	–	–	> 100	–	–	–	–	–	–
COC(=O)/C(C#N)=C1\N=NNN1CCCN1CCOCC1	> 100	> 100	> 100	> 100	> 100	> 100	–	–	–	–	–	–	–	> 100	–	–	–	–	–	–
Cc1nnc([S-])s1.[Au+].c1ccc([PH+](c2ccccc2)c2ccccc2)cc1	6.76	–	–	2.99	–	3.09	–	3.13	2.34	–	–	1.64	1.59	3	–	1.52	–	1.7	1.68	3.23
O=C1OCC(C(=O)c2cccc(O)c2)C1=O (stereo not given)	–	–	> 100	> 100	> 100	> 100	> 100	> 100	–	–	–	–	–	> 100	–	–	–	–	–	–
COC(=O)c1c(C)oc2ccc(OC(C)=O)cc12	> 100	> 100	> 100	> 100	> 100	> 100	> 100	> 100	–	–	–	–	–	> 100	–	–	–	–	–	–
COc1ccc(C2=CC(c3cc(OC)c(OC)c(OC)c3)n3ncnc3N2)cc1 (stereo not given)	> 100	> 100	11.2	66.4	> 100	–	25.2	> 100	0.171	0.0359	0.0381	10	–	–	0.141	–	0.0588	0.502	0.0648	97.8
O=C(OCc1ccccc1CN1CCOCC1)c1ccc(Br)cc1	–	–	44.2	> 100	> 100	> 100	> 100	> 100	–	–	–	–	–	60.4	–	–	–	–	–	> 100
CCCCCCCCCCCCCCCC[N+]1(CC)CCCC1	2.19	–	–	11.6	2.44	3.76	2.52	1.81	0.486	–	–	2.79	0.582	1.98	1.1	1.58	1.03	0.439	0.84	2.14
CN1CC2(CCCCC2)C(O)C12C=CCCC2 (stereo not given)	> 100	> 100	> 100	> 100	> 100	> 100	> 100	–	–	–	–	–	–	> 100	–	–	–	–	–	–
Cc1cc(N(CCC#N)S(=O)(=O)c2ccccc2)ccc1C=O	> 100	> 100	> 100	> 100	> 100	> 100	> 100	> 100	–	–	–	–	–	> 100	–	–	–	–	–	–
CCOC(=O)CCC1(C(=O)OC)CCCC1=O (stereo not given)	> 100	> 100	> 100	> 100	–	> 100	> 100	> 100	–	–	–	–	–	> 100	–	–	–	–	–	–
COC(=O)C(CC=O)C(=O)C(=O)Nc1cccc(C(F)(F)F)c1 (stereo not given)	> 100	> 100	> 100	> 100	> 100	> 100	> 100	> 100	–	–	–	–	–	> 100	–	–	–	–	–	–
Oc1cc2cc(-c3ccccc3)[nH]c2c2ccccc12	> 82.6	> 88.8	> 100	> 92.6	> 92.9	32.5	> 100	> 100	–	–	–	–	–	41.6	–	–	–	–	–	–
c1ccc2c(c1)CCCc1cc3ccccc3nc1-2	> 100	> 100	> 100	> 100	> 100	> 100	> 100	> 100	–	–	–	–	–	> 100	–	–	–	–	–	–
CC1OC(=O)N(CCCC=C2SCCCS2)C1=O (stereo not given)	> 100	> 100	> 100	> 100	> 100	> 100	–	> 100	–	–	–	–	–	> 100	–	–	–	–	–	–
CCOC(=O)c1cnc2[nH]c(=O)c3ccccc3n2c1=O	> 100	> 100	> 100	> 100	> 100	> 100	> 100	> 100	–	–	–	–	–	> 100	–	–	–	–	–	–
CC(=O)[CH-]C(=O)c1ccccc1.CC(=O)[CH-]C(=O)c1ccccc1.[O]=[U+2]=[O]	> 100	> 100	57.4	–	> 100	> 100	66.2	> 100	32.3	37.3	23.4	–	21.8	54.6	56	34.3	23.8	> 100	–	–
O=C(CCCCCCCCC(=O)OCC1OC(n2cnc3c(=O)[nH]cnc32)C(O)C1O)OCC1OC(n2cnc3c(=O)[nH]cnc32)C(O)C1O (stereo not given)	> 100	> 100	> 100	> 100	> 100	> 100	> 100	> 100	–	–	–	–	–	> 100	–	–	–	–	–	–
O=C(CCCCCCCCCCc1ccccc1)c1c(O)cccc1O	61.8	58.7	88	38.7	34.6	38.8	42.2	45.2	–	–	–	–	–	34.3	–	–	–	–	–	–
